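Five compound concentrations were applied to cells in 96-well plates for 48 hours; endpoints were derived by simple linear interpolation of the resulting dose-response curve. GI50 = concentration required for 50% inhibition of growth.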 The source made the active and inactive calls. No stated cut-off is given here; in the data, active = GI50 up to about 1.1 µM and inactive = higher.
Experiments:
Test in all cases: growth of human tumour cells (NCI), 48 h
TK-10 = test system: TK-10
MDA-MB-435 = test system: MDA-MB-435
HOP-92 = test system: HOP-92
EKVX = test system: EKVX
UACC-257 = test system: UACC-257
SW-620 = test system: SW-620
SF-295 = test system: SF-295
Malme-3M = test system: Malme-3M
HCC 2998 = test system: HCC 2998
DU-145 = test system: DU-145
MCF7 = test system: MCF7
OVCAR-4 = test system: OVCAR-4
IGROV-1 = test system: IGROV-1
MDA-N = test system: MDA-N
SK-OV-3 = test system: SK-OV-3
SN12C = test system: SN12C
NCI-H226 = test system: NCI-H226
NCI-H522 = test system: NCI-H522
CCRF-CEM = test system: CCRF-CEM
ACHN = test system: ACHN
HL-60 = test system: HL-60
SK-MEL-5 = test system: SK-MEL-5
RXF 393 = test system: RXF 393
BT-549 = test system: BT-549
SF-268 = test system: SF-268
RPMI-8226 = test system: RPMI-8226
SNB-19 = test system: SNB-19
MDA-MB-231 = test system: MDA-MB-231
CAKI-1 = test system: CAKI-1
MOLT-4 = test system: MOLT-4
T47D = test system: T47D
HCT-15 = test system: HCT-15
UACC-62 = test system: UACC-62
A498 = test system: A498
HCT-116 = test system: HCT-116
UO-31 = test system: UO-31
NCI-H460 = test system: NCI-H460
NCI/ADR-RES = test system: NCI/ADR-RES
PC-3 = test system: PC-3
SK-MEL-28 = test system: SK-MEL-28
A549 = test system: A549
COLO 205 = test system: COLO 205
OVCAR-3 = test system: OVCAR-3
OVCAR-8 = test system: OVCAR-8
786-0 = test system: 786-0
HT-29 = test system: HT-29
KM12 = test system: KM12
M14 = test system: M14
NCI-H23 = test system: NCI-H23
SK-MEL-2 = test system: SK-MEL-2
SR = test system: SR
OVCAR-5 = test system: OVCAR-5
K562 = test system: K562
HOP-62 = test system: HOP-62
U-251 = test system: U-251
SF-539 = test system: SF-539
SNB-75 = test system: SNB-75
Hs-578T = test system: Hs-578T
LOX IMVI = test system: LOX IMVI

How did the GI50 (TK-10) turn out when `CC1(CO)OC(n2cnc3cncnc32)CC1O` (centres undefined) was run?
Its GI50 is > 100 µM (inactive).

And the GI50 (MDA-MB-435)?
The GI50 was > 100 µM (inactive).

And the GI50 (HOP-92)?
Its GI50 is > 100 µM (inactive).

What about the GI50 (EKVX) of the same compound?
The GI50 was > 100 µM (inactive).

And the GI50 (UACC-257)?
Its GI50 is > 100 µM (inactive).

And the GI50 (SW-620)?
Its GI50 is > 100 µM (inactive).

What about the GI50 (SF-295) of the same compound?
Its GI50 is > 100 µM (inactive).

And the GI50 (Malme-3M)?
Its GI50 is > 100 µM (inactive).

And the GI50 (HCC 2998)?
Its GI50 is > 100 µM (inactive).

And the GI50 (DU-145)?
The GI50 was > 100 µM (inactive).

What about the GI50 (MCF7) of the same compound?
Its GI50 is > 100 µM (inactive).

And the GI50 (OVCAR-4)?
The GI50 was > 100 µM (inactive).

And the GI50 (IGROV-1)?
The GI50 was > 100 µM (inactive).

And the GI50 (MDA-N)?
Its GI50 is > 100 µM (inactive).

And the GI50 (SK-OV-3)?
Its GI50 is > 100 µM (inactive).

And the GI50 (SN12C)?
The GI50 was > 100 µM (inactive).

What about the GI50 (NCI-H226) of the same compound?
The GI50 was > 100 µM (inactive).

And the GI50 (NCI-H522)?
Its GI50 is > 100 µM (inactive).

What about the GI50 (CCRF-CEM) of the same compound?
The GI50 was > 100 µM (inactive).

What about the GI50 (ACHN) of the same compound?
Its GI50 is > 100 µM (inactive).

What about the GI50 (HL-60) of the same compound?
The GI50 was > 100 µM (inactive).

And the GI50 (SK-MEL-5)?
The GI50 was > 100 µM (inactive).

And the GI50 (RXF 393)?
The GI50 was > 100 µM (inactive).

And the GI50 (BT-549)?
The GI50 was > 100 µM (inactive).

And the GI50 (SF-268)?
The GI50 was > 100 µM (inactive).

What about the GI50 (RPMI-8226) of the same compound?
The GI50 was > 100 µM (inactive).

What about the GI50 (SNB-19) of the same compound?
Its GI50 is > 100 µM (inactive).

What about the GI50 (MDA-MB-231) of the same compound?
The GI50 was > 100 µM (inactive).

What about the GI50 (CAKI-1) of the same compound?
The GI50 was > 100 µM (inactive).

And the GI50 (MOLT-4)?
The GI50 was > 100 µM (inactive).

What about the GI50 (T47D) of the same compound?
Its GI50 is > 100 µM (inactive).

And the GI50 (HCT-15)?
The GI50 was greater than 100 µM.

What about the GI50 (UACC-62) of the same compound?
Its GI50 is > 100 µM (inactive).

What about the GI50 (A498) of the same compound?
The GI50 was > 100 µM (inactive).

What about the GI50 (HCT-116) of the same compound?
Its GI50 is > 100 µM (inactive).

And the GI50 (UO-31)?
Its GI50 is > 100 µM (inactive).

What about the GI50 (NCI-H460) of the same compound?
Its GI50 is > 100 µM (inactive).

What about the GI50 (NCI/ADR-RES) of the same compound?
Its GI50 is > 100 µM (inactive).

And the GI50 (PC-3)?
Its GI50 is > 100 µM (inactive).

And the GI50 (SK-MEL-28)?
Its GI50 is > 100 µM (inactive).

And the GI50 (A549)?
Its GI50 is > 100 µM (inactive).

What about the GI50 (COLO 205) of the same compound?
The GI50 was > 100 µM (inactive).

And the GI50 (OVCAR-3)?
The GI50 was > 100 µM (inactive).

What about the GI50 (OVCAR-8) of the same compound?
The GI50 was > 100 µM (inactive).

And the GI50 (786-0)?
The GI50 was > 100 µM (inactive).

And the GI50 (HT-29)?
Its GI50 is > 100 µM (inactive).

What about the GI50 (KM12) of the same compound?
The GI50 was > 100 µM (inactive).

What about the GI50 (M14) of the same compound?
The GI50 was > 100 µM (inactive).

And the GI50 (NCI-H23)?
The GI50 was > 100 µM (inactive).

And the GI50 (SK-MEL-2)?
The GI50 was > 100 µM (inactive).

And the GI50 (SR)?
Its GI50 is > 100 µM (inactive).

And the GI50 (OVCAR-5)?
Its GI50 is > 100 µM (inactive).

And the GI50 (K562)?
Its GI50 is > 100 µM (inactive).

And the GI50 (HOP-62)?
The GI50 was > 100 µM (inactive).

And the GI50 (U-251)?
The GI50 was > 100 µM (inactive).

And the GI50 (SF-539)?
Its GI50 is > 100 µM (inactive).

`CC(=O)Oc1c2oc3cc(O)c(O)cc3c2c(OC(C)=O)c2oc3cc(O)c(O)cc3c12` [POLYOZELLIN] was tested. Which GI50 (SNB-75) did it give?
The GI50 was 15.8 µM (inactive).

What about the GI50 (TK-10) of the same compound?
Its GI50 is 18.9 µM (inactive).

What about the GI50 (MDA-MB-435) of the same compound?
The GI50 was 1.82 µM (inactive).

What about the GI50 (EKVX) of the same compound?
Its GI50 is 20.6 µM (inactive).

And the GI50 (UACC-257)?
The GI50 was 19.4 µM (inactive).

What about the GI50 (SW-620) of the same compound?
The GI50 was 23.2 µM (inactive).

And the GI50 (SF-295)?
Its GI50 is 16.7 µM (inactive).

What about the GI50 (Malme-3M) of the same compound?
Its GI50 is 17.1 µM (inactive).

And the GI50 (HCC 2998)?
Its GI50 is 16.9 µM (inactive).

And the GI50 (Hs-578T)?
Its GI50 is 12.2 µM (inactive).

And the GI50 (OVCAR-4)?
The GI50 was 19.8 µM (inactive).

And the GI50 (IGROV-1)?
The GI50 was 18.2 µM (inactive).

And the GI50 (MDA-N)?
Its GI50 is 23.6 µM (inactive).

What about the GI50 (SK-OV-3) of the same compound?
The GI50 was 20.8 µM (inactive).

What about the GI50 (SN12C) of the same compound?
Its GI50 is 20.9 µM (inactive).

And the GI50 (NCI-H226)?
The GI50 was 19.2 µM (inactive).

What about the GI50 (NCI-H522) of the same compound?
Its GI50 is 10.3 µM (inactive).

What about the GI50 (CCRF-CEM) of the same compound?
Its GI50 is 2.57 µM (inactive).

And the GI50 (ACHN)?
Its GI50 is 20.8 µM (inactive).

What about the GI50 (HL-60) of the same compound?
The GI50 was 3.08 µM (inactive).

And the GI50 (SK-MEL-5)?
The GI50 was 18.6 µM (inactive).

What about the GI50 (RXF 393) of the same compound?
Its GI50 is 18.1 µM (inactive).

What about the GI50 (BT-549) of the same compound?
The GI50 was 17.1 µM (inactive).

And the GI50 (SF-268)?
The GI50 was 20.7 µM (inactive).

And the GI50 (RPMI-8226)?
The GI50 was > 10 µM (inactive).

And the GI50 (SNB-19)?
Its GI50 is 23.7 µM (inactive).

And the GI50 (CAKI-1)?
Its GI50 is 29.2 µM (inactive).

And the GI50 (MOLT-4)?
Its GI50 is 2.64 µM (inactive).

And the GI50 (HCT-15)?
Its GI50 is 25.2 µM.

What about the GI50 (UACC-62) of the same compound?
Its GI50 is 16.6 µM (inactive).

What about the GI50 (HCT-116) of the same compound?
The GI50 was 18.7 µM (inactive).

And the GI50 (UO-31)?
Its GI50 is 21 µM (inactive).

What about the GI50 (NCI-H460) of the same compound?
The GI50 was 18.6 µM (inactive).

What about the GI50 (NCI/ADR-RES) of the same compound?
The GI50 was 35.3 µM (inactive).

What about the GI50 (PC-3) of the same compound?
Its GI50 is 19.8 µM (inactive).

What about the GI50 (SK-MEL-28) of the same compound?
Its GI50 is 21.1 µM (inactive).

What about the GI50 (A549) of the same compound?
Its GI50 is 35 µM (inactive).

What about the GI50 (COLO 205) of the same compound?
Its GI50 is 15.4 µM (inactive).

And the GI50 (OVCAR-3)?
The GI50 was > 10 µM (inactive).

And the GI50 (OVCAR-8)?
Its GI50 is 20.2 µM (inactive).

What about the GI50 (786-0) of the same compound?
The GI50 was 25.2 µM (inactive).

And the GI50 (HT-29)?
Its GI50 is 26.4 µM (inactive).

What about the GI50 (KM12) of the same compound?
Its GI50 is 20.3 µM (inactive).

And the GI50 (M14)?
The GI50 was 23.4 µM (inactive).

And the GI50 (NCI-H23)?
Its GI50 is 2.39 µM (inactive).

What about the GI50 (SK-MEL-2) of the same compound?
The GI50 was 20.5 µM (inactive).

And the GI50 (SR)?
The GI50 was 4.4 µM (inactive).

And the GI50 (OVCAR-5)?
Its GI50 is 25.5 µM (inactive).

What about the GI50 (K562) of the same compound?
Its GI50 is 19.1 µM (inactive).

And the GI50 (HOP-62)?
Its GI50 is 16.1 µM (inactive).

And the GI50 (LOX IMVI)?
The GI50 was 24.5 µM (inactive).

And the GI50 (U-251)?
The GI50 was 1.56 µM (inactive).

And the GI50 (SF-539)?
Its GI50 is 23 µM (inactive).

Reference: ChEMBL document CHEMBL1201862, “PubChem BioAssay data set” (2004)
